Consider 19 molecules from ChEMBL document CHEMBL3286323, “The design and synthesis of novel SGLT2 inhibitors: C-glycosides with benzyltriazolopyridinone and phenylhydantoin as the aglycone moieties” (Bioorg Med Chem, 2014).

Usually IC50 stands for the concentration that gives 50% inhibition. In general, bioavailability refers to dose-corrected exposure relative to a reference, in per cent. Low values mean poor availability, high ones good availability. By half-life is commonly meant the time in which the quantity being followed falls by half. Read a high half-life as slow decline.

Series [1] concerns the target T1, Sodium/glucose cotransporter 1 (Homo sapiens, UniProt P13866).
T1 sequence (P13866 whole entry): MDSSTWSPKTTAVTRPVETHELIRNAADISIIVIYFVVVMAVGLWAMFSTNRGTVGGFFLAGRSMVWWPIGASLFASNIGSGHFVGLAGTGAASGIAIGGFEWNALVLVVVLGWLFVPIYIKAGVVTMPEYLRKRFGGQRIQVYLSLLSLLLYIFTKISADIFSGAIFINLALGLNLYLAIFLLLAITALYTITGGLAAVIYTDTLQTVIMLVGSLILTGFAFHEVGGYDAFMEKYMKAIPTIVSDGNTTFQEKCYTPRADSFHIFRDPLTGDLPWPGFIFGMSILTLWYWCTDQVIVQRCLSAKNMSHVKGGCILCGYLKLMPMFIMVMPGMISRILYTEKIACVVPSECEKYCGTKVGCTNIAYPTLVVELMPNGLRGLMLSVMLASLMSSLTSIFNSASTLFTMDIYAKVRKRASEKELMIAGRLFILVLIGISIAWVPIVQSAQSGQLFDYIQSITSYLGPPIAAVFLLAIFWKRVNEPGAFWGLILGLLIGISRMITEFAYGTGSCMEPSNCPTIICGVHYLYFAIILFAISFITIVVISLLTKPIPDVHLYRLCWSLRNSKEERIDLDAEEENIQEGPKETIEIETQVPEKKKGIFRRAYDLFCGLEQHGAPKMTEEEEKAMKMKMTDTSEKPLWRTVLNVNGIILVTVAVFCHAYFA
The experiment in a line: Inhibition of human SGLT1 expressed in CHOK1 cells assessed as inhibition of [14C]-AMG uptake after 3 hrs by microbeta scintillation counting analysis. The format is cell-based, CHO-K1.

The target of series [2] is T2, Sodium/glucose cotransporter 2 (Homo sapiens, UniProt P31639).
T2 sequence (P31639 whole entry): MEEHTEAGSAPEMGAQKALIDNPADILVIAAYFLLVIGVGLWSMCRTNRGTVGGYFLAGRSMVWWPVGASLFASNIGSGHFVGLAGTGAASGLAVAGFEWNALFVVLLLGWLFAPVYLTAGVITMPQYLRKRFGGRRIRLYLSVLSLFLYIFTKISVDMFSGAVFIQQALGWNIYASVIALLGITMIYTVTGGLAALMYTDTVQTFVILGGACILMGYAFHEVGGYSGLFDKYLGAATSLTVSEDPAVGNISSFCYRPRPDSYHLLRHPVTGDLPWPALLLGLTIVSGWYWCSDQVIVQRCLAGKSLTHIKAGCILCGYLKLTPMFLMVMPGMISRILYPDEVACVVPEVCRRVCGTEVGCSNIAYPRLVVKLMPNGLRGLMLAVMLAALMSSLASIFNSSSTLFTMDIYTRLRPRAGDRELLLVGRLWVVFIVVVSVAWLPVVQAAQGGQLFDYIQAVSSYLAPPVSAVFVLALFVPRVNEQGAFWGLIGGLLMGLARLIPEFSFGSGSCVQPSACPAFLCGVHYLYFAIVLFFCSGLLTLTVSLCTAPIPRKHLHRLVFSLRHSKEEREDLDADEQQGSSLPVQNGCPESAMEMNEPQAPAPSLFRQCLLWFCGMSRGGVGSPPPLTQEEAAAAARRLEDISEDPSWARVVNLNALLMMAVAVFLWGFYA
The series is described as follows: Inhibition of human SGLT2 expressed in CHOK1 cells assessed as inhibition of [14C]-AMG uptake after 3 hrs by microbeta scintillation counting analysis. The format is cell-based, CHO-K1.

The target in another series is T3, Cytochrome P450 1A2 (Homo sapiens, UniProt P05177).
T3 sequence (P05177 whole entry): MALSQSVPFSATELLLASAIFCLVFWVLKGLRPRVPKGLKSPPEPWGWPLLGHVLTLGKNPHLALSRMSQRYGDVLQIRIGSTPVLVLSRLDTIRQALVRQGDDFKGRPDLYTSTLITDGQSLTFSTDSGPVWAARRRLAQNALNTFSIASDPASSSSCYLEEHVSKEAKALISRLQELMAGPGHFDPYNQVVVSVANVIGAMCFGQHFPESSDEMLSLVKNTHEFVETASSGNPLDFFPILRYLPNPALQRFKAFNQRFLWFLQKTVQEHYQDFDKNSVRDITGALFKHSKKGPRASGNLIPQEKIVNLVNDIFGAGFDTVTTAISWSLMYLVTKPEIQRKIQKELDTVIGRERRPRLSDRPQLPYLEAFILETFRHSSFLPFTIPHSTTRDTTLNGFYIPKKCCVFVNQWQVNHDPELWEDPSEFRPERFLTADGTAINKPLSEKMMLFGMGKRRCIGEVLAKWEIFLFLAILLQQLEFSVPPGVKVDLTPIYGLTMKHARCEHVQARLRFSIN
The experiment in a line: Inhibition of CYP1A2 (unknown origin). It is filed as ADME.

A further series concerns the target Cytochrome P450 2C19 (Homo sapiens, UniProt P33261). The experiment in a line: Inhibition of CYP2C19 (unknown origin). The format is ADME.
The target in a further series is Cytochrome P450 2C9 (Homo sapiens, UniProt P11712). The series is described as follows: Inhibition of CYP2C9 (unknown origin). It is filed as ADME.
Series [3] in a line: Intrinsic clearance in human liver microsomes. The settings on record: read-out: CLH. The format is ADME. (In general: Liver microsomes are a subcellular fraction often used to study metabolism.)
A further series deals with Cytochrome P450 2D6 (Homo sapiens, UniProt P10635). The series is described as follows: Inhibition of CYP2D6 (unknown origin). It is filed as ADME.
The next series deals with T4, Cytochrome P450 2B6 (Homo sapiens, UniProt P20813).
T4 sequence (P20813 whole entry): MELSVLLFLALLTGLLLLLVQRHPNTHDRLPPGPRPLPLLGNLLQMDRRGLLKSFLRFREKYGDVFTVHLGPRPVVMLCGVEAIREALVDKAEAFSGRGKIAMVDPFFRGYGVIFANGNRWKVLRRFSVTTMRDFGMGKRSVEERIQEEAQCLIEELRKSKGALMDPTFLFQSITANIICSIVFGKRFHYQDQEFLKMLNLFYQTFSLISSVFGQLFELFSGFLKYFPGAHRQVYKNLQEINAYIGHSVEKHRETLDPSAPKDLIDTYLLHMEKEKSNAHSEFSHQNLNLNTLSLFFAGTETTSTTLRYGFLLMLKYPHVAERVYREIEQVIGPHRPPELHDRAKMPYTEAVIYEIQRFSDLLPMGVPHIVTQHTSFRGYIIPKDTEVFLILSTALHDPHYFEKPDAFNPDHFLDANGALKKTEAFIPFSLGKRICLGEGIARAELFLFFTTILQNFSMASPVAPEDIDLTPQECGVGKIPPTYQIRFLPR
The experiment in a line: Inhibition of CYP2B6 (unknown origin). It is filed as ADME.

Series [4] can be described thus: Intrinsic clearance in rat liver microsomes. The format is ADME. The settings on record: read-out: CLH.
Another series deals with Cytochrome P450 3A4 (Homo sapiens, UniProt P08684). The experiment in a line: Inhibition of CYP3A4 (unknown origin). The format is ADME.
Series [5] is described as follows: Oral bioavailability in rat. The format is ADME, organism-based. The settings on record: in vivo.
Series [6] is described as follows: Half life in rat. The format is ADME, organism-based. The settings on record: in vivo.

Chain of Cytochrome P450 3A4 (P08684 whole entry): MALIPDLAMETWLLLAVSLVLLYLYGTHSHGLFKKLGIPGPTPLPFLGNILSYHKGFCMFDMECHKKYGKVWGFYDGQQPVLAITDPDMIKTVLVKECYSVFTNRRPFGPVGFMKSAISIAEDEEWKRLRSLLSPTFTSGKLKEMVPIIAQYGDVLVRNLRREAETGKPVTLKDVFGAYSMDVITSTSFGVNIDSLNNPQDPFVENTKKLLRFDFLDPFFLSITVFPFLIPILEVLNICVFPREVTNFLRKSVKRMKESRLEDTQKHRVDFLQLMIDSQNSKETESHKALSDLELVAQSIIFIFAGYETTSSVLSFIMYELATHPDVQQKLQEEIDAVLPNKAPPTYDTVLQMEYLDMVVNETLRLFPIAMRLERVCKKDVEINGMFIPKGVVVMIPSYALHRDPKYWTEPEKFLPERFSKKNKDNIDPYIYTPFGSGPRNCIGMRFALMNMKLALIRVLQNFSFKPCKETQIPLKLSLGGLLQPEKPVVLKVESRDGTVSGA
Chain of Cytochrome P450 2C19 (P33261 whole entry): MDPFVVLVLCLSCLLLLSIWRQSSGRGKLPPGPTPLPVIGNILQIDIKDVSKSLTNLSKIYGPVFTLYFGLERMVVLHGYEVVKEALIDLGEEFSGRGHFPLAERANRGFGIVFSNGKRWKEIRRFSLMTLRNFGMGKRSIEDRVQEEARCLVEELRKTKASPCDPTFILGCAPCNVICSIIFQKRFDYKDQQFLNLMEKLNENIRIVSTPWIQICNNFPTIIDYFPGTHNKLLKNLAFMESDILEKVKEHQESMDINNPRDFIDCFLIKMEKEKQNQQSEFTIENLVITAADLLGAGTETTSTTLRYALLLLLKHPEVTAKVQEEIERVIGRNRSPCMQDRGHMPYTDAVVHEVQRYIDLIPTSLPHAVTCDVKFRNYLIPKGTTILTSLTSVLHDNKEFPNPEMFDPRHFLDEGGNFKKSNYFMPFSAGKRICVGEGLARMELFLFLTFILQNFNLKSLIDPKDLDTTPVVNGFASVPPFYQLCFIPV
Chain of Cytochrome P450 2D6 (P10635 whole entry): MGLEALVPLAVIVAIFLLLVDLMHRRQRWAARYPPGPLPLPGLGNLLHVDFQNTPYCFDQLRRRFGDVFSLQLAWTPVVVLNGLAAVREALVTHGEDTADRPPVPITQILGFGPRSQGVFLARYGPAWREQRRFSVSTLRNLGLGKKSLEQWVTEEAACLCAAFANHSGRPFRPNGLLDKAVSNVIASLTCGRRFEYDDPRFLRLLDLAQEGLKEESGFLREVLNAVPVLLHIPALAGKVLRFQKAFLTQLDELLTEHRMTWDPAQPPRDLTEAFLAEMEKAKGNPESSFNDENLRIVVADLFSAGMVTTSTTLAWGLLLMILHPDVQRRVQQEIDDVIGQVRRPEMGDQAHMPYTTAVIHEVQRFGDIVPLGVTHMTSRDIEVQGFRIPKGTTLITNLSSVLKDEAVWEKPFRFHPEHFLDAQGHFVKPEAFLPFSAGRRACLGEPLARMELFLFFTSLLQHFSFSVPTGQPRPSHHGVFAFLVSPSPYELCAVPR
Chain of Cytochrome P450 2C9 (P11712 whole entry): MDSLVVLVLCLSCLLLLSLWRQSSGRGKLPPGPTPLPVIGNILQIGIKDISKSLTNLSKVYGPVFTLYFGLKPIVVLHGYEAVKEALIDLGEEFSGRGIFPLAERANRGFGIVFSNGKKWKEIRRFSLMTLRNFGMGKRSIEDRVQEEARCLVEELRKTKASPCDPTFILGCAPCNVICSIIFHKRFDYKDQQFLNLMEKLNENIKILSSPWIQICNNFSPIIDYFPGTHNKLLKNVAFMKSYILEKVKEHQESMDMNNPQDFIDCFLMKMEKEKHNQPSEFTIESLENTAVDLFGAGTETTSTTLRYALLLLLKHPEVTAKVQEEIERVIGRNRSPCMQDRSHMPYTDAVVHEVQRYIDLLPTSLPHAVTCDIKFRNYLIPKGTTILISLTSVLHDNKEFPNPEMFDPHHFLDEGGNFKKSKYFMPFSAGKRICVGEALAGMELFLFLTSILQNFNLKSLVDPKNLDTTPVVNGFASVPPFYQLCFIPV

For `O=c1n(Cc2cc([C@@H]3O[C@H](CO)[C@@H](O)[C@H](O)[C@H]3O)ccc2Cl)nc2ccccn12`, in [1], the half-maximal inhibitory concentration (IC50) is greater than 90 µM.
Regarding `O=c1n(Cc2cc([C@@H]3O[C@H](CO)[C@@H](O)[C@H](O)[C@H]3O)ccc2Cl)nc2ccc(Cl)cn12`, the values for the IC50 in series [1] and in series [2] were greater than 90 µM and 0.08 µM, respectively.
For `O=c1n(Cc2cc([C@@H]3O[C@H](CO)[C@@H](O)[C@H](O)[C@H]3O)ccc2Cl)nc2ccc(Br)cn12` the same measures were greater than 90 µM and 0.107 µM.
Taken in the same sequence, the figures for `Cc1ccc2nn(Cc3cc([C@@H]4O[C@H](CO)[C@@H](O)[C@H](O)[C@H]4O)ccc3Cl)c(=O)n2c1` were greater than 90 µM and 0.12 µM.
`O=c1n(Cc2cc([C@@H]3O[C@H](CO)[C@@H](O)[C@H](O)[C@H]3O)ccc2Cl)nc2ccc(CO)cn12`: the IC50 in [2] stood at 0.141 µM.
Take `O=c1n(Cc2cc([C@@H]3O[C@H](CO)[C@@H](O)[C@H](O)[C@H]3O)ccc2Cl)nc2ccc(F)cn12`: in [1], the IC50 is greater than 90 µM.
Regarding `O=c1n(Cc2cc([C@@H]3O[C@H](CO)[C@@H](O)[C@H](O)[C@H]3O)ccc2Cl)nc2ccc(C(F)(F)F)cn12`, in series [2], the IC50 was found to be 0.762 µM.
On the same count and under the same terms, to `O=c1n(Cc2cc([C@@H]3O[C@H](CO)[C@@H](O)[C@H](O)[C@H]3O)ccc2Cl)nc2cc(Cl)ccn12` belongs 0.089 µM.
Regarding `Cc1ccn2c(=O)n(Cc3cc([C@@H]4O[C@H](CO)[C@@H](O)[C@H](O)[C@H]4O)ccc3Cl)nc2c1`, the half-inhibitory concentration (IC50) in series [1] is greater than 90 µM.
On to `O=c1n(Cc2cc([C@@H]3O[C@H](CO)[C@@H](O)[C@H](O)[C@H]3O)ccc2Cl)nc2cc(C(F)(F)F)ccn12`, for which the IC50 is greater than 90 µM in series [1] and 0.252 µM in [2].
Taken in the same sequence, the figures for `COc1ccn2c(=O)n(Cc3cc([C@@H]4O[C@H](CO)[C@@H](O)[C@H](O)[C@H]4O)ccc3Cl)nc2c1` were greater than 90 µM and 5.48 µM.
Taken in the same sequence, the figures for `O=c1n(Cc2cc([C@@H]3O[C@H](CO)[C@@H](O)[C@H](O)[C@H]3O)ccc2Cl)nc2cc(OCC(F)(F)F)ccn12` were greater than 90 µM and 5.7 µM.
Taken in the same sequence, the figures for `Cc1cccc2nn(Cc3cc([C@@H]4O[C@H](CO)[C@@H](O)[C@H](O)[C@H]4O)ccc3Cl)c(=O)n12` were greater than 90 µM and 9.92 µM.
With `O=c1n(Cc2cc([C@@H]3O[C@H](CO)[C@@H](O)[C@H](O)[C@H]3O)ccc2Cl)nc2c(Cl)cccn12`, the IC50 in series [1] was greater than 90 µM; in series [2] it was 9 µM.
For `O=c1n(Cc2cc([C@@H]3O[C@H](CO)[C@@H](O)[C@H](O)[C@H]3O)ccc2Cl)nc2c(F)cccn12` the same measures were greater than 90 µM and 3.3 µM.
In the case of `Cc1cc2nn(Cc3cc([C@@H]4O[C@H](CO)[C@@H](O)[C@H](O)[C@H]4O)ccc3Cl)c(=O)n2cc1Cl`, the IC50 at Cytochrome P450 1A2 was greater than 11 µM; against Cytochrome P450 2C19 it was greater than 11 µM; against Cytochrome P450 2C9 it was greater than 11 µM; in [2], 0.033 µM; at Cytochrome P450 2D6, greater than 11 µM; against Cytochrome P450 2B6, greater than 11 µM. Also, the IC50 on Cytochrome P450 3A4 was greater than 11 µM. Further, the microsomal CLint in series [3] was determined as 3.6 µL/min/mg; in series [4], 2.8 µL/min/mg.
For `CN1C(=O)N(c2ccc(Cc3cc([C@@H]4O[C@H](CO)[C@@H](O)[C@H](O)[C@H]4O)ccc3Cl)cc2)C(C)(C)C1=O`, the IC50 is 83.1 µM in series [1] and 0.248 µM in series [2].
On to `CCN1C(=O)CN(c2ccc(Cc3cc([C@@H]4O[C@H](CO)[C@@H](O)[C@H](O)[C@H]4O)ccc3Cl)cc2)C1=O`, for which the IC50 against Cytochrome P450 1A2 is greater than 11 µM; at Cytochrome P450 2C19, greater than 11 µM; against Cytochrome P450 2C9, greater than 11 µM; in series [2], 0.0109 µM; against Cytochrome P450 2D6, greater than 11 µM; on Cytochrome P450 2B6, greater than 11 µM. On Cytochrome P450 3A4, the IC50 was greater than 11 µM. Further, the bioavailability in series [5] was 4%. Also, the values for the microsomal CLint in series [3] and in series [4] were 1.3 µL/min/mg and 1.9 µL/min/mg, respectively. In [6], this molecule showed a half-life of 35 min.
Take `CN1C(=O)CN(c2ccc(Cc3cc([C@@H]4O[C@H](CO)[C@@H](O)[C@H](O)[C@H]4O)ccc3Cl)cc2)C1=O`: the results for the IC50 in series [1] and in series [2] were 90 µM and 0.489 µM, respectively.
